Laboratory results: patent publication US20240383869A1, “ARYLACETYL INHIBITORS OF TG2 AND USES THEREOF” (UNIVERSITY OF OTTAWA, priority 2021, published 2024)

What was measured:
FXIIIa = target: T1, FXIIIa (Homo sapiens, UniProt P00488); assay: Fluorescence isopeptidase activity assay (A101 FRET-quenched probe), isozyme selectivity; format: biochemical; conditions: normalized [I]/α
T1 construct: purchased Zedira
T1 sequence (P00488 39-732 limits assumed): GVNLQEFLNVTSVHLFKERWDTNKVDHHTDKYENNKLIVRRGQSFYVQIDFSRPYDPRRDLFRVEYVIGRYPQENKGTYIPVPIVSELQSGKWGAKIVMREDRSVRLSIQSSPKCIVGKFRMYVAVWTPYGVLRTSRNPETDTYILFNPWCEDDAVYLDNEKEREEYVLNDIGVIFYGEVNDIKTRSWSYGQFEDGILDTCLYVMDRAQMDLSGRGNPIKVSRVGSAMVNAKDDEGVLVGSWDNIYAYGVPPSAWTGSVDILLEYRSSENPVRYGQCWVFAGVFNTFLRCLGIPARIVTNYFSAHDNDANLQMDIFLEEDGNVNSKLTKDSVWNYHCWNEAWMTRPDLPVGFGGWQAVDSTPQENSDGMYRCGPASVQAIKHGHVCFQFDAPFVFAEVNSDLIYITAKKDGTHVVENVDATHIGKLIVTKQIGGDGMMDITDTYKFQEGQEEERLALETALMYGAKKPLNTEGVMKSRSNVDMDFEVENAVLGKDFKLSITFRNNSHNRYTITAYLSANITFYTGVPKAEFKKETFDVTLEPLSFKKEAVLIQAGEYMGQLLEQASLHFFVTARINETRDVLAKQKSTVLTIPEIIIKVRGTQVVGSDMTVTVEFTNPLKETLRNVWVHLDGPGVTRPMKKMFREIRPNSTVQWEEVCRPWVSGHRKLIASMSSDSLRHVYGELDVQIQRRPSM
Method: Fluorescence isopeptidase activity assay. The isopeptidase activity of pre-activated TG3a and FXIIIa (purchased from Zedira) was measured via a fluorescence-based assay as described (Kirily, R. et al., “Isopeptidase activity of human transglutaminase 2: disconnection from transamidation and characterization by kinetic parameters.” Amino Acids 2016, 48 (1), 31-40) using the commercially available peptidic FRET quenched probe A101. Briefly, the final concentration in the reaction mixture contained 50 mM Tris (pH 7.0), 10 mM CaCl2, 100 mM NaCl, 2.8 mM TCEP, 50 μM A101 and 14 mM H-Gly-OMe. The reaction was monitored at 25° C. using a BioTek Synergy 4 plate reader (Ex/Em: 318/413 nm). Enzymatic inhibition assays were run under Kitz and Wilson conditions (Kitz, R. and Wilson, I. B., “Esters of methanesulfonic acid as irreversible inhibitors of acetylcholinesterase.” J. Biol. Chem. 1962, 237, 3245-49), which were established for TG3a and FXIIIa at a substrate (A101) concentration of 50 μM using enzyme concentrations of 0.17 μM and 0.11 μM for TG3a and FXIIIa, respectively.

hTG1 = target: T2, hTG1 (Homo sapiens, UniProt P22735); assay: Colorimetric transamidase activity assay, isozyme selectivity; format: biochemical; conditions: normalized [I]/α
T2 sequence (P22735 1-817): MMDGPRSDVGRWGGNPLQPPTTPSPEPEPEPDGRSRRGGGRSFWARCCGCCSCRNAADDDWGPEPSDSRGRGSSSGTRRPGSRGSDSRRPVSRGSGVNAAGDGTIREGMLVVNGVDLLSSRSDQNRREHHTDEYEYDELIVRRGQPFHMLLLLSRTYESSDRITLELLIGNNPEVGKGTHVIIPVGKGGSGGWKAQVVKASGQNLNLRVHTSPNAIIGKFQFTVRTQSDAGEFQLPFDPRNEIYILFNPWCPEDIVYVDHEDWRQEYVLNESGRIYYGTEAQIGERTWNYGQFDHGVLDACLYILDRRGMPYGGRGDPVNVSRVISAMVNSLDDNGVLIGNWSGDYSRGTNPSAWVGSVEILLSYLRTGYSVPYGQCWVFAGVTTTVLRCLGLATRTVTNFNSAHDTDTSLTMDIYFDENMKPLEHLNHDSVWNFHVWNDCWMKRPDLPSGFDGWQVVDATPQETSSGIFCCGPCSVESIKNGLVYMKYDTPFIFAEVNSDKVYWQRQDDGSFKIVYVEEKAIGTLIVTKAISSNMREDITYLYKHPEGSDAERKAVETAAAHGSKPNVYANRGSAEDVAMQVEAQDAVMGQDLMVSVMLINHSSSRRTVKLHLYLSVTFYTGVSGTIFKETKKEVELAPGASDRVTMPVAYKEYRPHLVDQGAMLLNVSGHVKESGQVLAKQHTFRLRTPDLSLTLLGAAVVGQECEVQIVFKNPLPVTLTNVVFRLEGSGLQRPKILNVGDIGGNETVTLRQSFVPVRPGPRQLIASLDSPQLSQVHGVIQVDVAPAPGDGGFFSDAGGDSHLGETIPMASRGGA
Method: Colorimetric transamidase activity assay. The activities of hTG1, hTG2 and hTG6 were measured via a colorimetric assay using the chromogenic substrate Cbz-Glu(γ-p-nitrophenyl ester)Gly (AL5), as described (Leblanc, A. et al., “Kinetic studies of guinea pig liver transglutaminase reveal a general-base-catalyzed deacylation mechanism.” Biochemistry 2001, 40 (28), 8335-8342). Assays were conducted at 25° C. in 50 mM MOPS buffer (pH 6.95) containing 7.5 mM CaCl2. […] Stock solutions of the inhibitors were made in water ranging in concentration from 100-500 μM. The reaction was initiated with the addition of enzyme, 0.10 μM hTG1, 0.25 μM hTG2 (4.6 mU/mL) or 0.32 μM hTG6. Formation of hydrolysis product, p-nitrophenolate (pNP), was monitored at 405 nm in a polystyrene 96-well microplate using a BioTek Synergy 4 plate reader. The observed first-order rate constants of inactivation (kobs) were determined via non-linear regression fit to a mono-exponential model (Eqn 1) of absorbance versus time curves. These rate constants (kobs) were in turn fit to a saturation kinetics model (Eqn 2), by non-linear regression, providing the kinetic parameters kinact and KI, as previously described by Stone and Hofsteenge (Stone, S. R. and Hofsteenge, J., “Specificity of activated human protein C.” Biochem. J. 1985, 230 (2), 497-502). […] Experiments were completed in triplicate at minimum.

Row | Structure (SMILES) | inhibition of FXIIIa (FXIIIa) | inhibition of TG1 (hTG1)
1 | C=CC(=O)NCCCC[C@H](NC(=O)OCc1ccccc1)C(=O)N1CCN(C(=O)c2cccc3ccccc23)CC1 [AA9, reference compound] | none of these inhibitors showed any detectable inhibition | none of these inhibitors showed any detectable inhibition
2 | C=CC(=O)NCCCC[C@H](NC(=O)Cc1ccccc1F)C(=O)N1CCN(C(=O)c2cccc3ccccc23)CC1 [Inhibitor 72, (S)-N-(6-(4-(1-naphthoyl)piperazin-1-yl)-5-(2-(2-fluorophenyl)acetamido)-6-oxohexyl)acrylamide] | none of these inhibitors showed any detectable inhibition | none of these inhibitors showed any detectable inhibition
3 | C=CC(=O)NCCCC[C@H](NC(=O)Cc1ccccc1C)C(=O)N1CCN(C(=O)c2cccc3ccccc23)CC1 [Inhibitor 74, (S)-N-(6-(4-(1-naphthoyl)piperazin-1-yl)-5-(2-(2-methylphenyl)acetamido)-6-oxohexyl)acrylamide] | none of these inhibitors showed any detectable inhibition | none of these inhibitors showed any detectable inhibition
